Experiment: xn = mol fraction of the nth substance listed
Conditions: 100.9 kPa

CC(=O)[O-].CC[NH2+]CC + O
Conditions	electrical conductivity [S/m]	speed of sound [m/s]	viscosity [mPa·s]
313.15 K, x1 = 0.351	–	–	19.49
313.15 K, x1 = 0.708	–	1494	–
313.15 K, x1 = 0.714	–	–	33.5
313.15 K, x1 = 0.835	–	1461	–
313.15 K, x1 = 0.84	–	–	34
315.65 K, x1 = 0.015	–	–	0.904
315.65 K, x1 = 0.055	–	–	1.89
315.65 K, x1 = 0.24	–	–	11.59
315.65 K, x1 = 0.351	–	–	17.57
315.65 K, x1 = 0.549	–	–	26.3
315.65 K, x1 = 0.84	–	–	30.6
318.15 K, x1 = 0.015	4.74	1608	0.862
318.15 K, x1 = 0.054	8.13	–	–
318.15 K, x1 = 0.055	–	1732	1.774
318.15 K, x1 = 0.119	–	1782	3.94
318.15 K, x1 = 0.12	5.91	–	–
318.15 K, x1 = 0.168	4.05	1758	6.11
318.15 K, x1 = 0.24	2.51	1699	10.54
318.15 K, x1 = 0.35	–	1636	–
318.15 K, x1 = 0.351	–	–	15.87
318.15 K, x1 = 0.549	–	1526	23.7
318.15 K, x1 = 0.55	0.767	–	–
318.15 K, x1 = 0.708	–	1479	–
318.15 K, x1 = 0.714	0.609	–	27.2
318.15 K, x1 = 0.835	–	1446	–
318.15 K, x1 = 0.838	0.498	–	–
318.15 K, x1 = 0.84	–	–	27.6
318.15 K, x1 = 0.945	0.476	–	–
320.65 K, x1 = 0.015	–	–	0.826
320.65 K, x1 = 0.055	–	–	1.67
320.65 K, x1 = 0.119	–	–	3.65
320.65 K, x1 = 0.168	–	–	5.63
320.65 K, x1 = 0.24	–	–	9.62
320.65 K, x1 = 0.351	–	–	14.41
320.65 K, x1 = 0.549	–	–	21.5
320.65 K, x1 = 0.714	–	–	24.6
320.65 K, x1 = 0.84	–	–	25
323.15 K, x1 = 0.015	–	1610	0.795
323.15 K, x1 = 0.055	–	1725	1.576
323.15 K, x1 = 0.119	–	1768	3.4
323.15 K, x1 = 0.168	–	1744	5.21
323.15 K, x1 = 0.24	–	1685	8.81
323.15 K, x1 = 0.35	–	1622	–
323.15 K, x1 = 0.351	–	–	13.12
323.15 K, x1 = 0.549	–	1512	19.55
323.15 K, x1 = 0.708	–	1464	–
323.15 K, x1 = 0.714	–	–	22.3
323.15 K, x1 = 0.835	–	1430	–
323.15 K, x1 = 0.84	–	–	22.7
325.65 K, x1 = 0.015	–	–	0.757
325.65 K, x1 = 0.055	–	–	1.489
325.65 K, x1 = 0.119	–	–	3.17
325.65 K, x1 = 0.168	–	–	4.82
325.65 K, x1 = 0.24	–	–	8.09
325.65 K, x1 = 0.351	–	–	11.97
325.65 K, x1 = 0.549	–	–	17.76
325.65 K, x1 = 0.714	–	–	20.3
325.65 K, x1 = 0.84	–	–	20.6
328.15 K, x1 = 0.055	–	–	1.411
328.15 K, x1 = 0.119	–	–	2.97
328.15 K, x1 = 0.168	–	–	4.48
328.15 K, x1 = 0.24	–	–	7.45
328.15 K, x1 = 0.351	–	–	10.96
328.15 K, x1 = 0.714	–	–	18.53
328.15 K, x1 = 0.84	–	–	18.78
330.65 K, x1 = 0.24	–	–	6.88
330.65 K, x1 = 0.351	–	–	10.06
330.65 K, x1 = 0.549	–	–	14.78
330.65 K, x1 = 0.714	–	–	16.94
330.65 K, x1 = 0.84	–	–	17.14
333.15 K, x1 = 0.015	7.37	–	0.666
333.15 K, x1 = 0.054	13.1	–	–
333.15 K, x1 = 0.055	–	–	1.273
333.15 K, x1 = 0.12	8.77	–	–
333.15 K, x1 = 0.168	5.75	–	3.89
333.15 K, x1 = 0.24	3.65	–	6.37
333.15 K, x1 = 0.353	2	–	–
333.15 K, x1 = 0.549	–	–	13.57
333.15 K, x1 = 0.714	0.802	–	15.52
333.15 K, x1 = 0.838	0.666	–	–
333.15 K, x1 = 0.945	0.65	–	–
335.65 K, x1 = 0.015	–	–	0.641
335.65 K, x1 = 0.055	–	–	1.213
335.65 K, x1 = 0.119	–	–	2.45
335.65 K, x1 = 0.24	–	–	5.91
335.65 K, x1 = 0.351	–	–	8.55
335.65 K, x1 = 0.549	–	–	12.48
335.65 K, x1 = 0.714	–	–	14.25
335.65 K, x1 = 0.84	–	–	14.39
338.15 K, x1 = 0.015	–	–	0.617
338.15 K, x1 = 0.055	–	–	1.159
338.15 K, x1 = 0.119	–	–	2.31
338.15 K, x1 = 0.168	–	–	3.4
338.15 K, x1 = 0.24	–	–	5.49
338.15 K, x1 = 0.351	–	–	7.91
338.15 K, x1 = 0.549	–	–	11.5
338.15 K, x1 = 0.714	–	–	13.11
338.15 K, x1 = 0.84	–	–	13.23
340.65 K, x1 = 0.015	–	–	0.595
340.65 K, x1 = 0.055	–	–	1.108
340.65 K, x1 = 0.119	–	–	2.18
340.65 K, x1 = 0.24	–	–	5.12
340.65 K, x1 = 0.351	–	–	7.33
340.65 K, x1 = 0.549	–	–	10.62
340.65 K, x1 = 0.714	–	–	12.08
340.65 K, x1 = 0.84	–	–	12.19
343.15 K, x1 = 0.015	–	–	0.574
343.15 K, x1 = 0.119	–	–	2.06
343.15 K, x1 = 0.168	–	–	3
343.15 K, x1 = 0.24	–	–	4.78
343.15 K, x1 = 0.351	–	–	6.81
343.15 K, x1 = 0.549	–	–	9.84
343.15 K, x1 = 0.714	–	–	11.16
343.15 K, x1 = 0.84	–	–	11.24
348.15 K, x1 = 0.007	3.01	–	–
348.15 K, x1 = 0.015	10.1	–	–
348.15 K, x1 = 0.054	16.6	–	–
348.15 K, x1 = 0.12	10.6	–	–
348.15 K, x1 = 0.168	7.47	–	–
348.15 K, x1 = 0.24	4.92	–	–
348.15 K, x1 = 0.945	1.09	–	–
363.15 K, x1 = 0.007	3.4	–	–
363.15 K, x1 = 0.015	12.9	–	–
363.15 K, x1 = 0.054	17.4	–	–
363.15 K, x1 = 0.12	11.6	–	–
363.15 K, x1 = 0.24	5.47	–	–
363.15 K, x1 = 0.353	3.65	–	–
363.15 K, x1 = 0.55	2.24	–	–
363.15 K, x1 = 0.714	1.67	–	–
363.15 K, x1 = 0.838	1.32	–	–

From a compilation of properties of binary mixtures (doi:10.1016/j.jct.2020.106093)
